Laboratory results: patent publication US20170202936A1, “Identification, Optimization And Use Of Cryptic HLA-B7 Epitopes For Immunotherapy” (VAXON BIOTECH, priority 2006, published 2017)
pEC50: −log10 of the molar value. “Also recorded” adds a separate entry of the source.

Columns and labels:
HLA-B*0702 = biological target: T1, HLA-B*0702 (Homo sapiens, UniProt P01889); test: Measurement of peptide relative affinity to HLA-B*0702 (T2-B7 cells, ME-1 mAb staining); format: binding
T1 construct: expressed in transfected cells; host or cells: human T2 cells transfected with HLA-B*0702 (T2-B7)
Procedure: The affinity of a peptide for HLA-B*0702 can be determined by methods known in the art, for instance by the assay described by Rohrlich et al., 2003. Results are expressed as relative affinity (RA) when compared to a reference peptide. […] Peptides with RA greater than 10 are therefore considered to be cryptic peptides (or epitopes).
Measurement of Peptide Relative Affinity to HLA-B*0702. The protocol used has been described previously (Rohrlich et al., 2003). Briefly, T2-B7 cells were incubated at 37° C. for 16 hours with peptides concentrations ranging from 100 μM to 0.1 μM, and then stained with ME-1 monoclonal antibody (mAb) to quantify the surface expression of HLA-B*0702. For each peptide concentration, the HLA-B*0702 specific staining was calculated as the percentage of staining obtained with 100 μM of the reference peptide CMV265-274 (R10V; […], SEQ ID NO: 9). The relative affinity (RA) was determined as: RA=(Concentration of each peptide that induces 20% of HLA-B*0702-expression/Concentration of the reference peptide that induces 20% of HLA-B*0702 expression).

[1] = system: HLA-B*0702 transgenic mice; test: CTL induction in vivo in HLA-B*0702 transgenic mice (immunogenicity, cytotoxic assay on peptide-loaded RMA-B7 targets); set-up: key to Corresponding native peptide cross-reconnaissance: + for immunogenicity or native peptide cross recognition means that the peptide induced a specific response in at least one HLA-B*0702 transgenic mouse, able to recognized the corresponding native peptide; details: for Immunogenicity: specific CTL immune response (in words): HLA-B*0702 transgenic mice
Procedure: (§1) CTL Induction in vivo in HLA-B*0702 Transgenic Mice. Mice were injected subcutaneously with 100 μg of peptide emulsified in Incomplete Freund's Adjuvant (IFA) in the presence of 150 μg of the I-A^b restricted HBVcore128 T helper epitope ([…], SEQ ID NO: 10). After 11 days, 5×10^7 spleen cells were stimulated in vitro with peptide (10 μM). On day 6 of culture, the bulk responder populations were tested for specific cytotoxicity.
(§2) Cytotoxic assay. Targets were labelled with 100 μCi of Cr^51 for 60 min, plated in 96-well V-bottomed plates (3×10^3 cell/well in 100 μL of RPMI 1640 medium) and, when necessary, pulsed with peptides (1 μM) at 37° C. for 2 hours. Effectors were then added in the wells and incubated at 37° C. for 4 hours. Percentage of specific lysis was determined as: % Lysis=(Experimental Release−Spontaneous Release)/(Maximal Release−Spontaneous Release)×100.
(§3) HLA-B7 transgenic mice were vaccinated with the selected peptides, and eleven days later, their spleen cells were in vitro stimulated with the peptide.

[2] = system: COS-7 cells transfected with HLA-B*0702 and TERT; test: Peptide processing assay on COS-7 transfected cells (TNFα secretion by murine CTL); format: cell-based, simian; details: COS-7 cells transfected with HLA-B*0702 and/or TERT
Procedure: Peptide Processing Assay on COS-7 Transfected Cells. 2.2×10^4 simian COS-7 cells were plated in flat-bottomed 96-well plates in DMEM+10% FCS, in triplicate for each condition. Eighteen hours later, cells were transfected with 100 ng of each DNA plasmid with DEAE Dextran. After 4 hours, PBS+10% DMSO was added for 2 minutes. Transfected COS cells were incubated in DMEM+10% FCS during 40 hours and then used to stimulate murine CTL in a TNFα secretion assay.
TNFα Secretion Assay. Transfected COS-7 cells at day 4 were suspended in […] of RPMI+10% FCS and used as stimulating cells. 5×10^4 murine T cells were then added in 50 μl RPMI 10% FCS and incubated for 6 hours. Each condition was tested in triplicate. 50 μl of the supernatant was collected to measure TNFα. Standard dilutions were prepared in 50 μl with final doses of TNFα ranging from 104 to 0 pg/ml. On both the supernatants and the standard dilutions, 3×10^4 TNFα sensitive WEHI-164c13 cells in 50 μl were added. They were incubated for 16 h at 37° C. Inhibition of cell proliferation was evaluated by the MTT colorimetric method (Espevik and Nissen-Meyer, 1986).

T2-B7 cells = test: IFNγ intracellular staining of human CTL stimulated with peptide-loaded T2-B7 cells; format: cell-based; details: donor D5609, 4 pools; T2-B7 cells loaded with TERT444 or TERT444A1
Procedure: Generation of CTL from human PBMC. PBMC were collected by leukapheresis from healthy HLA-B*0702 volunteers. Dendritic cells (DC) were produced from adherent cells cultured for seven days (2×10^6 cells/ml) in the presence of 500 IU/ml GM-CSF and 500 IU/ml IL-4 (R&D Systems, Minneapolis, Minn.) in complete medium (RPMI-1640 supplemented with 10% heat inactivated human AB serum, […] L-Glutamine and antibiotics). On day seven, DC were pulsed with 10 μM peptides for 2 hrs; maturation agents Poly I:C (Sigma, Oakville, Canada) at 100 ng/ml and anti-CD40 mAb (clone G28-5, ATCC, Manassas, Va.) at 2 μg/ml were added in the culture and DCs were incubated at 37° C. overnight or up to 48 hours. Mature DC were then irradiated (3500 rads). CD8+ cells were purified by positive selection with CD8 MicroBeads (Miltenyi Biotec, Auburn, Calif.) according to the manufacturer's instructions. 2×10^5 CD8^+ cells+6×10^4 CD8^− cells were stimulated with 2×10^4 peptide pulsed DC in complete culture medium supplemented with 1000 IU/ml IL-6 and 5 IU/ml IL-12 (R&D Systems, Minneapolis, Minn.) in round-bottomed 96 well plates. From day seven, cultures were weekly restimulated with peptide-loaded DC in the presence of 20 IU/ml IL-2 (Proleukin, Chiron Corp., Emeryville, Calif.) and 10 ng/ml IL-7 (R&D Systems, Minneapolis, Minn.). […]

[3] = system: HLA-B*0702 transgenic mice; test: CTL induction in vivo in HLA-B*0702 transgenic mice (immunogenicity, cytotoxic assay on peptide-loaded RMA-B7 targets); set-up: key: +: means that a specific immunoresponse was generated at least one HLA-B*0702 transgenic mice; details: Table IV
Procedure: as §1, §2, §3

[4] = system: HLA-B*0702 transgenic mice; test: as above; set-up: key: + for immunogenicity or native peptide cross recognition means that the peptide induced a specific response in at least one HLA-B*0702 transgenic mouse, able to recognized the corresponding native peptide; details: Table V
Procedure: as §1, §2, §3

RMA-B7 targets = test: Lysis of RMA-B7 targets loaded with decreasing peptide concentrations by murine CTL; format: cell-based; details: CTL from mice immunized with TERT444A1, restimulated in vitro with native TERT444, read-out: Half maximal lysis of peptide loaded targets
Procedure: as §1, §2

Sequence	Affinity for HLA-B*0702 (in words) (HLA-B*0702)	RA (HLA-B*0702; class symbols, Table IV)	Corresponding native peptide cross-reconnaissance ([1]; CTL induced in HLA-B*0702 transgenic mice)	Immunogenicity: specific CTL immune response (in words) [1]	Recognition of endogenous TERT by peptide-induced murine CTL [2]	Intracellular IFNg production by human CTL (T2-B7 cells)	Immunogenicity [3]	Immunogenicity [4]	RA (relative affinity for HLA-B*0702) (HLA-B*0702; T2-B7 cells, 16 hours 37° C., ratio of concentrations inducing 20% HLA-B*0702 expression vs reference peptide CMV265-274)	pEC50 (RMA-B7 targets)
APRRLVQLL [TERT444A1]	strong affinity	+ (+ = 1 < RA < 10)	+	induced an immune response in the majority of vaccinated mice	recognized COS-7 cells transfected with both HLA-B*0702 and TERT but not COS-7 cells transfected with either HLA-B*0702 or TERT	IFNg producing CTL were detected in pools 2 and 4	+	+	–	–
DPRRLVQLL [TERT444]	low affinity	–	–	Only the high affinity TERT4 was immunogenic; also recorded: not immunogenic	–	–	–	–	>10	8.26
